Patent US20200030355A1, “COMBINATION THERAPY FOR TREATING CANCER” (Epizyme, Inc., priority 2014, published 2020)

Experiments:
Type in all cases: cell-based, human
[1] = system: MOLM-13 (MLL-AF9); test: Combination proliferation study with Compound A2 (ATP/CellTiter-Glo, Chou-Talalay combination index); conditions: for Combination with Compound A2, MOLM13 / Combination with Compound A2, MOLM-13 (MLL-AF9): 7 Day Cotreatment Model; for Combination with Compound A2, MOLM13: Table 5; for Combination with Compound A2, MOLM-13 (MLL-AF9): Table 4
Experimental: (§1) The acute myelogenous leukemia cell lines MV4-11 (MLL-AF4) and MOLM-13 (MLL-AF9) were obtained from American Type Culture Collection (ATCC; Rockville, Md.) and Deutsche Sammlung von Mikroorganismen and Zellkulturen (DSMZ; Braunschweig, Germany) respectively.
(§2) Studies were performed using MLL-rearranged cell lines in vitro to evaluate the anti-proliferative effect of a combination of two agents together on cell growth. Initial proliferation studies were performed to determine the IC50 of a given compound in each cell line. The cell counts were measured by ATP quantitation using the Promega Cell Titer Glo kit and luminescence values corresponded to the amount of ATP in a given well.
(§3) Compounds were evaluated for synergy in the co-treatment phase by testing the compounds in a concentration range which was bracketed around their IC50 values. The compounds were plated to a 96 well plate in a matrix format (FIG. 3) which includes increasing concentrations of each drug in the combination in a constant ratio, in addition to the effect of each compound alone in the study. Cells were seeded and grown in the log-linear phase for 3 or 7 days in the co-treatment phase. Minimum inhibition (DMSO alone) controls were used in each plate to calculate fraction affected (Fa) of a test well. DMSO concentration was kept at 0.1% v/v.
(§4) The drug combination analysis was performed utilizing the Chou-Talalay method Synergy was determined using the software package Calcusyn by Biosoft. The combination index (CI) is a quantitative term used to describe the level of synergy or antagonism in a given test system. A combination index less than one indicates synergy, and a CI greater than one indicates antagonism. Further, strong synergism is achieved when the CI value falls below 0.3.
(§5) Graphs representing values of combination index (CI) versus Fractional effect (Fa) known as Fa-CI plots were generated and synergy was evaluated. Drug synergy was statistically defined by CI values less than 1, antagonism by CI>1 and additive effect by CI equal to 1.
Graphs representing values of combination index (CI) versus Fractional effect (Fa) known as Fa-CI plots were generated and synergy was evaluated. Drug synergy was statistically defined by CI values less than 1, antagonism by CI>1 and additive effect by CI equal to 1. […]
Cell viability was measured via ATP content using CellTiter-Glo® (Promega).
as §2, with “Proliferation studies” for “Studies”, “MOLM-13, MV4-11 and SKM-1” for “MLL-rearranged”, “cancer cell killing” for “anti-proliferative”, “IC50 values” for “IC50”, “correspond” for “corresponded”, “well. […]” for “well.”
Compounds evaluated for synergy in the co-treatment phase were tested in a range which was bracketed around the IC50's.

[2] = system: MV4-11 (MLL-AF4); test: as above; conditions: for Combination with Compound A2, MV4-11 (MLL-AF4) / Combination with Compound A2, MV4-11: 7 Day Cotreatment Model; for Combination with Compound A2, MV4-11 (MLL-AF4): Table 4; for Combination with Compound A2, MV4-11: Table 5
Experimental: as §1, §2, §3, §4, §5, §5
The HP-D300 digital dispenser (Tecan) was used to dispense compounds in a combinatorial matrix. […] Cell viability was measured via ATP content using CellTiter-Glo® (Promega).
Viability was determined using CellTiter-Glo® (Promega).
as §2, with “Proliferation studies” for “Studies”, “MOLM-13, MV4-11 and SKM-1” for “MLL-rearranged”, “cancer cell killing” for “anti-proliferative”, “IC50 values” for “IC50”, “correspond” for “corresponded”
These studies were performed to evaluate both the combinatorial effect of compounds on cell killing and the durability of the effect by washing out one of the agents.
Compounds evaluated for synergy in the co-treatment phase were tested in a range which was bracketed around the IC50's. The compounds were plated to a 96 well plate in a matrix format which includes increasing concentrations of each drug in the combination in a constant ratio, in addition to the effect of each compound alone in the study.

[3] = system: MOLM-13 cells; test: EPZ-5676 300 nM 7-day pre-treatment, then second compound 72 hours, ATPLite, IC50 shift (Example 6); conditions: 300 nM EPZ-5676 or DMSO 7-day pre-treatment, then 2nd compound 72 hours, Synergy = IC50 of 2nd compound decreased by 2-fold or more vs DMSO control
Experimental: Cells were then equilibrated in incubators for 24 hours before treatment with a second compound. Treated assay plates were incubated with a second compound for 72 hours. After this time, plates were developed for endpoint analysis using ATPLite to measure ATP content, which is used as an indicator of cell viability.
“N/D” means that IC50 of the second compound could not be determined for both conditions.

For `O=C(Nc1ccncc1)c1cc([N+](=O)[O-])ccc1Cl` [Compound T0070907], the “Combination with Compound A2, MOLM13” value [1] was “Additive (additive effect by CI equal to 1)” and the “Combination with EPZ-5676” value ([1]; MOLM-13 cells, co-treatment model of Example 3) was “Synergy (Drug synergy was statistically defined by CI values less than 1)”.

With `Nc1nc(Cl)nc2c1ncn2[C@@H]1O[C@H](CO)[C@@H](O)[C@@H]1F` [Clofarabine] the “Combination with Compound A2, MOLM-13 (MLL-AF9)” value (“Combination … (MLL-AF9)” for short) [1] was “Synergy (Drug synergy was statistically defined by CI values less than 1)” and the “Combination with Compound A2, MV4-11 (MLL-AF4)” value (“Combination … (MLL-AF4)” for short) [2] was “Synergy (Drug synergy was statistically defined by CI values less than 1)”.

For `Cn1c(=O)n(-c2ccc(C(C)(C)C#N)cc2)c2c3cc(-c4cnc5ccccc5c4)ccc3ncc21` [BEZ235], the “Combination with Compound A2, MOLM13” value [1] was “Additive (additive effect by CI equal to 1)”.

In the case of `CC1(C)CCC(c2ccc(Cl)cc2)=C(CN2CCN(c3ccc(C(=O)NS(=O)(=O)c4ccc(N[C@H](CCN5CCOCC5)CSc5ccccc5)c(S(=O)(=O)C(F)(F)F)c4)cc3)CC2)C1` [Navitoclax], the “Combination of Compound A2 and anti-cancer agent, MOLM-13” value ([1]; 7 Day Cotreatment) is reported as “synergy”, the “Combination … (MLL-AF9)” value [1] is reported as “Synergy (Drug synergy was statistically defined by CI values less than 1)” and the “Combination of Compound A2 and anti-cancer agent, MV4-11” value ([2]; 7 Day Cotreatment) is reported as “synergy”. For the same compound, the “Combination … (MLL-AF4)” value [2] was “Synergy (Drug synergy was statistically defined by CI values less than 1)”.

In the case of `C[C@@H]1COCCN1c1cc(C2(S(C)(=O)=O)CC2)nc(-c2cccc3[nH]ccc23)n1` [AZ20], the “Combination with Compound A2, MOLM13” value [1] is reported as “Synergy (Drug synergy was statistically defined by CI values less than 1)”.

With `C=CC(=O)N1CCC[C@@H](n2nc(-c3ccc(Oc4ccccc4)cc3)c3c(N)ncnc32)C1` [Ibrutinib] the “Combination … (MLL-AF4)” value [2] was “Synergy (Drug synergy was statistically defined by CI values less than 1)”.

With `CC[C@@H]1C(=O)N(C)c2cnc(Nc3ccc(C(=O)N[C@H]4CC[C@H](N5CCN(CC6CC6)CC5)CC4)cc3OC)nc2N1C(C)C` [Volasertib] the “Combination with Compound A2, MV4-11” value [2] was “Antagonstic”.

For `Nc1cccc2c1CN(C1CCC(=O)NC1=O)C2=O` (stereo not shown) [Lenalidomide], the “Combination … (MLL-AF9)” value [1] was “Combination Benefit”.

In the case of `COC1=CC(c2cc3ccccc3[nH]2)=N/C1=C\c1[nH]c(C)cc1C` [Obatoclax], the “Combination … (MLL-AF9)” value [1] is reported as “Additive (additive effect by CI equal to 1)”.

For `O=C(Nc1ccccc1-c1cn2c(CN3CCNCC3)csc2n1)c1cnc2ccccc2n1` [SRT-1720], the “Combination … (MLL-AF4)” value [2] was “Synergy (Drug synergy was statistically defined by CI values less than 1)” and the “MOLM-13 (summary of combination study: EPZ-5676 + 2nd compound)” value [3] was “Synergy (considered synergistic if the IC50 value of the second compound decreased by 2-fold or more when EPZ-5676 was added as compared to the DMSO control)”.

For `CO[C@@H]1[C@H](N(C)C(=O)c2ccccc2)C[C@H]2O[C@]1(C)n1c3ccccc3c3c4c(c5c6ccccc6n2c5c31)C(=O)NC4` [Midostaurin], the “Combination … (MLL-AF4)” value [2] was “Synergy (Drug synergy was statistically defined by CI values less than 1)”.

In the case of `C[C@@]1(C(=O)Nc2ccc(F)nc2)CCCN1c1nc(Nc2cc(C3CC3)n[nH]2)c2cccn2n1` [BMS-754807], the “MOLM-13 (summary of combination study: EPZ-5676 + 2nd compound)” value [3] is reported as “Synergy (considered synergistic if the IC50 value of the second compound decreased by 2-fold or more when EPZ-5676 was added as compared to the DMSO control)”.

In the case of `Cn1ncnc1[C@H]1c2n[nH]c(=O)c3cc(F)cc(c23)N[C@@H]1c1ccc(F)cc1` [BMN 673], the “MOLM-13 (summary of combination study: EPZ-5676 + 2nd compound)” value [3] is reported as “Synergy (considered synergistic if the IC50 value of the second compound decreased by 2-fold or more when EPZ-5676 was added as compared to the DMSO control)”.

With `Cn1cncc1[C@@](N)(c1ccc(Cl)cc1)c1ccc2c(c1)c(-c1cccc(Cl)c1)cc(=O)n2C` [Tipifarnib] the “Combination with Compound A2, MV4-11” value [2] was “Synergy (Drug synergy was statistically defined by CI values less than 1)” and the “MOLM-13 (summary of combination study: EPZ-5676 + 2nd compound)” value [3] was “Synergy (considered synergistic if the IC50 value of the second compound decreased by 2-fold or more when EPZ-5676 was added as compared to the DMSO control)”.

With `COc1ccc(Cl)c(Nc2nc3ccccc3nc2NS(=O)(=O)c2cccc(NC(=O)C(C)(C)N)c2)c1` [XL147] the “MOLM-13 (summary of combination study: EPZ-5676 + 2nd compound)” value [3] was “Synergy (considered synergistic if the IC50 value of the second compound decreased by 2-fold or more when EPZ-5676 was added as compared to the DMSO control)”.

`CC(=O)OC[C@H]1O[C@@H]([S-])[C@H](OC(C)=O)[C@@H](OC(C)=O)[C@@H]1OC(C)=O.CCP(CC)CC.[Au+]` [Auranofin] was tested, and the “MOLM-13 (summary of combination study: EPZ-5676 + 2nd compound)” value [3] was “Synergy (considered synergistic if the IC50 value of the second compound decreased by 2-fold or more when EPZ-5676 was added as compared to the DMSO control)”.

In the case of `COc1cc2nc(N3CCCN(C)CC3)nc(NC3CCN(Cc4ccccc4)CC3)c2cc1OC` [BIX01294], the “MOLM-13 (summary of combination study: EPZ-5676 + 2nd compound)” value [3] is reported as “Synergy (considered synergistic if the IC50 value of the second compound decreased by 2-fold or more when EPZ-5676 was added as compared to the DMSO control)”.

`CC(C)C[C@H](NC(=O)[C@H](Cc1ccccc1)NC(=O)c1cnccn1)B(O)O` [Velcade, bortezomib] was tested, and the “Combination … (MLL-AF9)” value [1] was “Combination Benefit”.

In the case of `c1ccc2c(CCNc3ccc(Nc4ccncc4)cc3)c[nH]c2c1` [JNJ 26854165], the “MOLM-13 (summary of combination study: EPZ-5676 + 2nd compound)” value [3] is reported as “Synergy (considered synergistic if the IC50 value of the second compound decreased by 2-fold or more when EPZ-5676 was added as compared to the DMSO control)”.

`O=c1cc(N2CCOCC2)oc2c(-c3cccc4c3sc3ccccc34)cccc12` [NU 7441] was tested, and the “MOLM-13 (summary of combination study: EPZ-5676 + 2nd compound)” value [3] was “Synergy (considered synergistic if the IC50 value of the second compound decreased by 2-fold or more when EPZ-5676 was added as compared to the DMSO control)”.

`O=C1c2ccccc2-c2nc3nonc3nc21` [SMER 3] was tested, and the “MOLM-13 (summary of combination study: EPZ-5676 + 2nd compound)” value [3] was “Synergy (considered synergistic if the IC50 value of the second compound decreased by 2-fold or more when EPZ-5676 was added as compared to the DMSO control)”.

For `Cc1cc(Cl)cc(OCCn2cc(F)cn2)c1-c1nc(N)nc2c1CN(C(=O)NCC(C)(F)F)C2` [BEP800], the “MOLM-13 (summary of combination study: EPZ-5676 + 2nd compound)” value [3] was “Synergy (considered synergistic if the IC50 value of the second compound decreased by 2-fold or more when EPZ-5676 was added as compared to the DMSO control)”.

`Cc1cc(/N=N/c2ccc(S(=O)(=O)Nc3ccccn3)cc2)c(N)cc1O` [MS 436] was tested, and the “MOLM-13 (summary of combination study: EPZ-5676 + 2nd compound)” value [3] was “Synergy (considered synergistic if the IC50 value of the second compound decreased by 2-fold or more when EPZ-5676 was added as compared to the DMSO control)”.

`c1ccc([C@@H]2C[C@H]2NC2CCNCC2)cc1` [GSK-LSD1] was tested, and the “MOLM-13 (summary of combination study: EPZ-5676 + 2nd compound)” value [3] was “Synergy (considered synergistic if the IC50 value of the second compound decreased by 2-fold or more when EPZ-5676 was added as compared to the DMSO control)”.

For `Nc1nc(F)nc2c1ncn2[C@@H]1O[C@H](CO)[C@@H](O)[C@@H]1O` [Fludarabine], the “Combination … (MLL-AF9)” value [1] was “Synergy (Drug synergy was statistically defined by CI values less than 1)”.

In the case of `Nc1ccccc1NC(=O)c1ccc(CNC(=O)OCc2cccnc2)cc1` [MS-275], the “MOLM-13 (summary of combination study: EPZ-5676 + 2nd compound)” value [3] is reported as “Synergy (considered synergistic if the IC50 value of the second compound decreased by 2-fold or more when EPZ-5676 was added as compared to the DMSO control)”.

With `COc1cc(Nc2ncc(F)c(Nc3ccc4c(n3)N(COP(=O)(O)O)C(=O)C(C)(C)O4)n2)cc(OC)c1OC` [Fostamatinib disodium] the “MOLM-13 (summary of combination study: EPZ-5676 + 2nd compound)” value [3] was “Synergy (considered synergistic if the IC50 value of the second compound decreased by 2-fold or more when EPZ-5676 was added as compared to the DMSO control)”.
